# Like-named read-outs stand apart in the source and are kept apart here.
# What was measured:
# WT PETNR = WT PETNR (Enterobacter cloacae, UniProt P71278); experiment: Stopped-flow FMN reduction (reductive half-reaction, hydride transfer) of WT PETNR by coenzyme; details: for kobs1: 10 mM NADPH or 25 mM NADH, pH 7.0
# L25I PETNR = L25I PETNR (Enterobacter cloacae, UniProt P71278, L26I); details: for kobs1: 10 mM NADPH or 25 mM NADH, pH 7.0
# L25A PETNR = L25A PETNR (Enterobacter cloacae, UniProt P71278, L26A); details: for kobs1 / A2 (amplitude of kobs2 out of total absorbance change) / kobs2: 10 mM NADPH or 25 mM NADH, pH 7.0
# L25A PETNR, sequence (P71278 entry or part of it L26A): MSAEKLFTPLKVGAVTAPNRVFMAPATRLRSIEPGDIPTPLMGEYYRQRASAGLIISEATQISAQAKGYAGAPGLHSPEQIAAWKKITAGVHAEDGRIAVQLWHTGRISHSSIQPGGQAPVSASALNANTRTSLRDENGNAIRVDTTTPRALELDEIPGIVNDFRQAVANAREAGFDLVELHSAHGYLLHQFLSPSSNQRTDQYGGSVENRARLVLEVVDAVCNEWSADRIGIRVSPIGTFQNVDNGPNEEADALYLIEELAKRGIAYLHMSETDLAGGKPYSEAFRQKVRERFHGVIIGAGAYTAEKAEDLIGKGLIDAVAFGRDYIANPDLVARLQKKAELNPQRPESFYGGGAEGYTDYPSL
# [1] = T0 = 298 K, fit of kobs1 (5–40 °C) to eq 1
# [2] = deuterated minus protiated coenzyme, T0 = 298 K
# L25I PETNR, sequence (P71278 entry or part of it L26I): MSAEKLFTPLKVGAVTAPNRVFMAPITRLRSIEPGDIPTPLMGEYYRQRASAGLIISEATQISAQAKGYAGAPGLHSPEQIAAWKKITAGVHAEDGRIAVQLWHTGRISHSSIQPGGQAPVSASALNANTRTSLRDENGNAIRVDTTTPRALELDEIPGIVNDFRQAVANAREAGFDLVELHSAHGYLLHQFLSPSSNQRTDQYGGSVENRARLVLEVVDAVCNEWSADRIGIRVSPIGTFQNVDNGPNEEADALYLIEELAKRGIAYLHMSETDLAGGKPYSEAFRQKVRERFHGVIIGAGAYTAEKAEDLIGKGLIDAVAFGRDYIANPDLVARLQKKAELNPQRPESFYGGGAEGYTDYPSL
# WT PETNR, sequence (P71278 entry or part of it): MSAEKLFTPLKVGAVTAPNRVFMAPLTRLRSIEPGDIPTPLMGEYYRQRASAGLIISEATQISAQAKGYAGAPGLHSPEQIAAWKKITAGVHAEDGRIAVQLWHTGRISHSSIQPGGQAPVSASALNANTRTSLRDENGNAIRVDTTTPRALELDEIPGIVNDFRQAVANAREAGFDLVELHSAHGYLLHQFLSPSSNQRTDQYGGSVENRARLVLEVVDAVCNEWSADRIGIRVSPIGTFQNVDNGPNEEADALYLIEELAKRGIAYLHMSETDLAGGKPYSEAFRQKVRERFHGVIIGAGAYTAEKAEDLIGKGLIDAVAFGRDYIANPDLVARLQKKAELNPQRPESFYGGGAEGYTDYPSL
compound,measurement,setting,value
[2H][C@@H]1C=CN([C@@H]2O[C@H](COP(=O)(O)OP(=O)(O)OC[C@H]3O[C@@H](n4cnc5c(N)ncnc54)[C@H](O)[C@@H]3O)[C@@H](O)[C@H]2O)C=C1C(N)=O [(R)-[4-^2H]-NADH],kobs1,WT PETNR; 5 °C,0.091 ± 0.001 s⁻¹
same,kobs1,WT PETNR; 15 °C,0.156 ± 0.001 s⁻¹
same,kobs1,WT PETNR; 20 °C,0.204 ± 0.002 s⁻¹
same,kobs1,WT PETNR; 25 °C,0.274 ± 0.001 s⁻¹
same,kobs1,WT PETNR; 30 °C,0.366 ± 0.002 s⁻¹
same,kobs1,WT PETNR; 35 °C,0.499 ± 0.011 s⁻¹
same,kobs1,WT PETNR; 40 °C,0.673 ± 0.005 s⁻¹
same,ΔCp^⧧,WT PETNR; [1],0.46 ± 0.02 kJ mol^–1 K^–1
same,ΔHT0^⧧,WT PETNR; [1],40.3 ± 0.1 kJ mol^–1
same,ΔST0^⧧,WT PETNR; [1],–120.4 ± 0.5 J mol^–1 K^–1
same,Isotope Effect on ΔCp^⧧,WT PETNR; [2],0.07 ± 0.04 kJ mol^–1 K^–1
same,Isotope Effect on ΔHT0^⧧ (ΔΔHT0^⧧),WT PETNR; [2],4.9 ± 0.2 kJ mol^–1
same,Isotope Effect on ΔST0^⧧,WT PETNR; [2],0.1 ± 0.7 J mol^–1 K^–1
same,kobs1,L25I PETNR; 5 °C,0.062 ± 0.001 s⁻¹
same,kobs1,L25I PETNR; 10 °C,0.083 ± 0.001 s⁻¹
same,kobs1,L25I PETNR; 20 °C,0.160 ± 0.001 s⁻¹
same,kobs1,L25I PETNR; 25 °C,0.223 ± 0.003 s⁻¹
same,kobs1,L25I PETNR; 30 °C,0.306 ± 0.005 s⁻¹
same,kobs1,L25I PETNR; 35 °C,0.418 ± 0.001 s⁻¹
same,kobs1,L25I PETNR; 40 °C,0.604 ± 0.066 s⁻¹
same,ΔCp^⧧,L25I PETNR; [1],0.30 ± 0.07 kJ mol^–1 K^–1
same,ΔHT0^⧧,L25I PETNR; [1],44.9 ± 0.2 kJ mol^–1
same,ΔST0^⧧,L25I PETNR; [1],–106.8 ± 0.8 J mol^–1 K^–1
same,Isotope Effect on ΔCp^⧧,L25I PETNR; [2],–0.03 ± 0.19 kJ mol^–1 K^–1
same,Isotope Effect on ΔHT0^⧧,L25I PETNR; [2],2.3 ± 1.8 kJ mol^–1
same,Isotope Effect on ΔST0^⧧,L25I PETNR; [2],–9.2 ± 6.0 J mol^–1 K^–1
same,kobs1,L25A PETNR; 5 °C,0.162 ± 0.002 s⁻¹
same,kobs1,L25A PETNR; 10 °C,0.211 ± 0.002 s⁻¹
same,kobs1,L25A PETNR; 15 °C,0.275 ± 0.004 s⁻¹
same,kobs1,L25A PETNR; 20 °C,0.360 ± 0.004 s⁻¹
same,kobs1,L25A PETNR; 25 °C,0.495 ± 0.002 s⁻¹
same,kobs1,L25A PETNR; 30 °C,0.612 ± 0.042 s⁻¹
same,A2 (amplitude of kobs2 out of total absorbance change),L25A PETNR; 35 °C,15.60 ± 2.69%
same,kobs1,L25A PETNR; 35 °C,0.885 ± 0.018 s⁻¹
same,kobs2,L25A PETNR; 35 °C,0.11 ± 0.03 s⁻¹
same,A2 (amplitude of kobs2 out of total absorbance change),L25A PETNR; 40 °C,34.60 ± 0.91%
same,kobs1,L25A PETNR; 40 °C,1.070 ± 0.054 s⁻¹
same,kobs2,L25A PETNR; 40 °C,0.17 ± 0.01 s⁻¹
same,ΔCp^⧧,L25A PETNR; [1],0.42 ± 0.14 kJ mol^–1 K^–1
same,ΔHT0^⧧,L25A PETNR; [1],40.3 ± 1.1 kJ mol^–1
same,ΔST0^⧧,L25A PETNR; [1],–115.7 ± 3.8 J mol^–1 K^–1
same,Isotope Effect on ΔCp^⧧,L25A PETNR; [2],0.13 ± 0.15 kJ mol^–1 K^–1
same,Isotope Effect on ΔHT0^⧧,L25A PETNR; [2],6.6 ± 1.2 kJ mol^–1
same,Isotope Effect on ΔST0^⧧,L25A PETNR; [2],6.4 ± 4.2 J mol^–1 K^–1
